This note sets out measurements from patent US10689327B2, “Prodrug amino acid derivative” (TAISHO PHARMACEUTICALS CO., LTD., priority 2016, dated 2020).

The series can be described thus: Stability test in solution (pH 1.2 and pH 6.5). In kind it is physicochemical. The following applies: 1 hour; for Compound's percent residue (%) pH 6.5: 20 mM phosphate buffer pH 6.5, 37° C.; for Compound's percent residue (%) pH 1.2: hydrochloric acid solution pH 1.2, 37° C. Here is the method:
Test 2: Stability Test in Solution
A test to determine the stability of Inventive Compounds (I-A) or (I) in a hydrochloric acid solution (pH 1.2) and 20 mM phosphate buffer (pH 6.5) was conducted in accordance with the following method.
A compound was dissolved in a hydrochloric acid solution (pH 1.2) containing hydrochloric acid and sodium chloride or a 20 mM phosphate buffer (pH 6.5) containing disodium hydrogenphosphate, sodium dihydrogenphosphate and sodium chloride to prepare a solution with a concentration of about 50 ng/mL (near the saturated concentration when the compound was not dissolved). The solution was incubated at 37° C. for 1 hour and the compound's concentration before and after the incubation was quantified by high-performance liquid chromatography to calculate the percent residue of the compound. Compounds having low solubility were assessed as being not applicable.
The percent residues of representative compounds in the hydrochloric acid solution (pH 1.2) and the 20 mM phosphate buffer (pH 6.5) are shown in the following Table 2.

For the molecule `C[C@@H](OC(=O)C12CC3CC(CC(C3)C1)C2)OC(=O)[C@@]1(N)[C@H]2[C@@H](C[C@H]1OC1CCCC1)[C@]2(F)C(=O)O` [Example 30, (1R,2R,3R,5R,6R)-2-amino-3-(cyclopentyloxy)-6-fluoro-2-({(1S)-1-[(tricyclo[3.3.1.1^3,7]decane-1-carbonyl)oxy]ethoxy}carbonyl)bicyclo[3.1.0]hexane-6-carboxylic acid], the “Compound's percent residue (%) pH 6.5” value came out at 102% and the “Compound's percent residue (%) pH 1.2” value amounted to 100%.

Turning to `CC(C)[C@@H]1CC[C@@H](C)C[C@H]1OC(=O)O[C@H](C)OC(=O)[C@@]1(N)[C@H]2[C@@H](C[C@H]1OCc1cccc(Cl)n1)[C@]2(F)C(=O)O` [Example 33, (1R,2R,3R,5R,6R)-2-amino-3-[(6-chloropyridin-2-yl)methoxy]-6-fluoro-2-({(1R)-1-[({[(1R,2S,5R)-5-methyl-2-(propan-2-yl)cyclohexyl]oxy}carbonyl)oxy]ethoxy}carbonyl)bicyclo[3.1.0]hexane-6-carboxylic acid], the “Compound's percent residue (%) pH 6.5” value is 97% and the “Compound's percent residue (%) pH 1.2” value worked out at 96%. With `N[C@]1(C(=O)OCOC(=O)C23CC4CC(CC(C4)C2)C3)[C@H]2[C@@H](C[C@H]1OCc1ccc(F)cc1)[C@]2(F)C(=O)O` [Example 7, (1R,2R,3R,5R,6R)-2-Amino-6-fluoro-3-[(4-fluorophenyl)methoxy]-2-({[(tricyclo[3.3.1.1^3,7]decane-1-carbonyl)oxy]methoxy}carbonyl)bicyclo[3.1.0]hexane-6-carboxylic acid], the “Compound's percent residue (%) pH 6.5” value turned out to be 106% and the “Compound's percent residue (%) pH 1.2” value is given as 101%. For the molecule `C[C@@H](OC(=O)C12CC3CC(CC(C3)C1)C2)OC(=O)[C@@]1(N)[C@H]2[C@@H](C[C@H]1OCc1cccc(Cl)n1)[C@]2(F)C(=O)O` [Example 24, (1R,2R,3R,5R,6R)-2-amino-3-[(6-chloropyridin-2-yl)methoxy]-6-fluoro-2-({(1S)-1-[(tricyclo[3.3.1.1^3,7]decane-1-carbonyl)oxy]ethoxy}carbonyl)bicyclo[3.1.0]hexane-6-carboxylic acid], the “Compound's percent residue (%) pH 6.5” value is on record as 96% and the “Compound's percent residue (%) pH 1.2” value was found to be 95%. With `CCCO[C@@H]1C[C@@H]2[C@H]([C@]1(N)C(=O)OC(C)OC(=O)O[C@H]1C[C@H]3CC[C@]1(C)C3(C)C)[C@@]2(F)C(=O)O` (stereo partly drawn) [Example 20, (1R,2R,3R,5R,6R)-2-Amino-6-fluoro-3-propoxy-2-({1-[({[(1R,2S,4R)-1,7,7-trimethylbicyclo[2.2.1]heptan-2-yl]oxy}carbonyl)oxy]ethoxy}carbonyl)bicyclo[3.1.0]hexane-6-carboxylic acid], the “Compound's percent residue (%) pH 6.5” value is recorded as 100% and the “Compound's percent residue (%) pH 1.2” value was 106%.

Turning to `CC(OC(=O)O[C@H]1C[C@@H](C)CC[C@@H]1C(C)C)OC(=O)[C@@]1(N)[C@H]2[C@@H](C[C@H]1OCc1ccc(F)cc1)[C@]2(F)C(=O)O` (stereo partly drawn) [Example 16-B, (1R,2R,3R,5R,6R)-2-Amino-6-fluoro-3-[(4-fluorophenyl)methoxy]-2-({1-[({[(1S,2R,5S)-5-methyl-2-(propan-2-yl)cyclohexyl]oxy}carbonyl)oxy]ethoxy}carbonyl)bicyclo[3.1.0]hexane-6-carboxylic acid], the “Compound's percent residue (%) pH 6.5” value is 93% and the “Compound's percent residue (%) pH 1.2” value amounted to 101%. As to `C[C@H](OC(=O)C12CC3CC(CC(C3)C1)C2)OC(=O)[C@@]1(N)[C@H]2[C@@H](C[C@H]1OCc1ccc(F)cc1)[C@]2(F)C(=O)O` [Example 3, (1R,2R,3R,5R,6R)-2-Amino-6-fluoro-3-[(4-fluorophenyl)methoxy]-2-({(1R)-1-[(tricyclo[3.3.1.1^3,7]decane-1-carbonyl)oxy]ethoxy}carbonyl)bicyclo[3.1.0]hexane-6-carboxylic acid], the “Compound's percent residue (%) pH 1.2” value amounted to 93%.

Take `CC(OC(=O)O[C@@H]1C[C@@H]2CC[C@@]1(C)C2(C)C)OC(=O)[C@@]1(N)[C@H]2[C@@H](C[C@H]1OCc1ccc(F)cc1)[C@]2(F)C(=O)O` (stereo partly drawn) [Example 17-B, (1R,2R,3R,5R,6R)-2-Amino-6-fluoro-3-[(4-fluorophenyl)methoxy]-2-({1-[({[(1S,2R,4S)-1,7,7-trimethylbicyclo[2.2.1]heptan-2-yl]oxy}carbonyl)oxy]ethoxy}carbonyl)bicyclo[3.1.0]hexane-6-carboxylic acid]: the “Compound's percent residue (%) pH 6.5” value was determined as 100% and the “Compound's percent residue (%) pH 1.2” value came to 106%. `C[C@@H](OC(=O)C12CC3CC(CC(C3)C1)C2)OC(=O)[C@@]1(N)[C@H]2[C@@H](C[C@H]1OCc1ccc(C(F)(F)F)cc1)[C@]2(F)C(=O)O` [Example 22, (1R,2R,3R,5R,6R)-2-amino-6-fluoro-2-({(1S)-1-[(tricyclo[3.3.1.1^3,7]decane-1-carbonyl)oxy]ethoxy}carbonyl)-3-{[4-(trifluoromethyl)phenyl]methoxy}bicyclo[3.1.0]hexane-6-carboxylic acid]: the “Compound's percent residue (%) pH 6.5” value worked out at 94% and the “Compound's percent residue (%) pH 1.2” value is reported as 96%.

As for `CCCO[C@@H]1C[C@@H]2[C@H]([C@]1(N)C(=O)OC(C)OC(=O)O[C@H]1C[C@@H](C)CC[C@@H]1C(C)C)[C@@]2(F)C(=O)O` (stereo partly drawn) [Example 15-A, (1R,2R,3R,5R,6R)-2-Amino-6-fluoro-2-({1-[({[(1S,2R,5S)-5-methyl-2-(propan-2-yl)cyclohexyl]oxy}carbonyl)oxy]ethoxy}carbonyl)-3-propoxybicyclo[3.1.0]hexane-6-carboxylic acid], the “Compound's percent residue (%) pH 6.5” value is reported as 104% and the “Compound's percent residue (%) pH 1.2” value came to 104%.

For the molecule `CC(C)(C)C(=O)OCOC(=O)[C@@]1(N)[C@H]2[C@@H](C[C@H]1OCc1ccc(F)cc1)[C@]2(F)C(=O)O` [Example 35, (1R,2R,3R,5R,6R)-2-amino-2-({[(2,2-dimethylpropanoyl)oxy]methoxy}carbonyl)-6-fluoro-3-[(4-fluorophenyl)methoxy]bicyclo[3.1.0]hexane-6-carboxylic acid], the “Compound's percent residue (%) pH 6.5” value was 97% and the “Compound's percent residue (%) pH 1.2” value is on record as 100%. Take `CC(OC(=O)O[C@@H]1C[C@@H]2CC[C@@]1(C)C2(C)C)OC(=O)[C@@]1(N)[C@H]2[C@@H](C[C@H]1OCc1ccc(F)cc1)[C@]2(F)C(=O)O` (single isomer, unassigned) [Example 17-A]: the “Compound's percent residue (%) pH 6.5” value is 97% and the “Compound's percent residue (%) pH 1.2” value worked out at 104%. Consider `COc1cc([C@@H](C)O[C@@H]2C[C@@H]3[C@H]([C@]2(N)C(=O)O[C@@H](C)OC(=O)C24CC5CC(CC(C5)C2)C4)[C@@]3(F)C(=O)O)ccc1F` [Example 25, (1R,2R,3R,5R,6R)-2-amino-6-fluoro-3-[(1R)-1-(4-fluoro-3-methoxyphenyl)ethoxy]-2-({(1S)-1-[(tricyclo[3.3.1.1^3,7]decane-1-carbonyl)oxy]ethoxy}carbonyl)bicyclo[3.1.0]hexane-6-carboxylic acid], for which the “Compound's percent residue (%) pH 6.5” value came out at 99% and the “Compound's percent residue (%) pH 1.2” value came to 98%. On to `CCCO[C@@H]1C[C@@H]2[C@H]([C@]1(N)C(=O)OC(C)OC(=O)O[C@@H]1C[C@@H]3CC[C@@]1(C)C3(C)C)[C@@]2(F)C(=O)O` (single isomer, unassigned) [Example 18-A], for which the “Compound's percent residue (%) pH 6.5” value came out at 103% and the “Compound's percent residue (%) pH 1.2” value came to 107%. With `CC(C)[C@@H]1CC[C@@H](C)C[C@H]1OC(=O)O[C@H](C)OC(=O)[C@@]1(N)[C@H]2[C@@H](C[C@H]1OCc1ccc(F)c(F)c1)[C@]2(F)C(=O)O` [Example 8, (1R,2R,3R,5R,6R)-2-amino-3-[(3,4-difluorophenyl)methoxy]-6-fluoro-2-({(1R)-1-[({[(1R,2S,5R)-5-methyl-2-(propan-2-yl)cyclohexyl]oxy}carbonyl)oxy]ethoxy}carbonyl)bicyclo[3.1.0]hexane-6-carboxylic acid], the “Compound's percent residue (%) pH 1.2” value was determined as 97%. Regarding `C[C@@H](OC(=O)C12CC3CC(CC(C3)C1)C2)OC(=O)[C@@]1(N)[C@H]2[C@@H](C[C@H]1OCc1ccc(F)c(F)c1)[C@]2(F)C(=O)O` [Example 11, (1R,2R,3R,5R,6R)-2-Amino-3-[(3,4-difluorophenyl)methoxy]-6-fluoro-2-({(1S)-1-[(tricyclo[3.3.1.1^3,7]decane-1-carbonyl)oxy]ethoxy}carbonyl)bicyclo[3.1.0]hexane-6-carboxylic acid], the “Compound's percent residue (%) pH 6.5” value amounted to 95% and the “Compound's percent residue (%) pH 1.2” value came to 96%.

Turning to `CC(C)[C@@H]1CC[C@@H](C)C[C@H]1OC(=O)O[C@H](C)OC(=O)[C@@]1(N)[C@H]2[C@@H](C[C@H]1OCc1ccc(F)cc1)[C@@H]2C(=O)O` [Example 39, (1S,2R,3R,5R,6S)-2-amino-3-[(4-fluorophenyl)methoxy]-2-({(1R)-1-[({[(1R,2S,5R)-5-methyl-2-(propan-2-yl)cyclohexyl]oxy}carbonyl)oxy]ethoxy}carbonyl)bicyclo[3.1.0]hexane-6-carboxylic acid], the “Compound's percent residue (%) pH 1.2” value came to 97%.

As for `CCCO[C@@H]1C[C@@H]2[C@H]([C@]1(N)C(=O)O[C@H](C)OC(=O)O[C@@H]1C[C@H](C)CC[C@H]1C(C)C)[C@@]2(F)C(=O)O` [Example 14, (1R,2R,3R,5R,6R)-2-Amino-6-fluoro-2-({(1S)-1-[({[(1R,2S,5R)-5-methyl-2-(propan-2-yl)cyclohexyl]oxy}carbonyl)oxy]ethoxy}carbonyl)-3-propoxybicyclo[3.1.0]hexane-6-carboxylic acid], the “Compound's percent residue (%) pH 6.5” value amounted to 97% and the “Compound's percent residue (%) pH 1.2” value was determined as 97%.
